Experimental data reported in US20250388554A1, “ANTIBACTERIAL COMPOUNDS, METHOD OF PRODUCTION AND USE THEREOF” (priority 2024, published 2025).
Converted amounts (≈) assume the structure as drawn.

How the values were obtained:
Mtb H37Rv [1] = tested on: Mtb H37Rv; parameters: species or system Mycobacterium tuberculosis; details: in vivo; for bacterial burden in lungs vs untreated control (CFU) / bacterial burden in spleen vs untreated control (CFU): 100 mg/kg
[2] = tested on: Mtb H37Rv in RAW 264.7 macrophages; test: Efficacy testing in Mtb infected macrophage model; type: cell-based, Mycobacterium tuberculosis; details: RAW 264.7, MOI=10, 3 days of treatment, 0-240 μM
IGPD (Rv1601) = IGPD (Rv1601) (Mycobacterium tuberculosis, UniProt P9WML9); test: IGPD stopped-assay, IC50 study; type: biochemical
Mtb H37Rv [3] = test: Resazurin assay (REMA) / alamarBlue MIC; type: cell-based; details: Mycobacterium tuberculosis, minimal media
[4] = Acute oral toxicity study (OECD 425), 14 days; details: for serum levels of SGOT, SGPT, creatinine, and urea compared to the untreated group: all doses, day 14; for LD50: oral, single dose, mice; for body weight compared to the untreated group: single oral dose, female mice, monitored for 14 days
Protocol: Healthy CD-1 female mice with weight 34±4 grams were used. The animals were housed individually in cages and maintained in a standard laboratory environment. […] A limit dose of 2000 mg/kg body weight of compound was used involving three mice. Each mouse was treated with a single oral dose of 5, 50, 500, 2000 mg/kg body weight on Day 0. Animals were observed individually at least once during the first 30 min after dosing, periodically during the first 24 h and daily thereafter, for a total of 14 days for any clinical signs of toxicity or mortality. At the end of 14 day's observation period, the animals were anaesthetized, and their blood samples were collected through retro orbital bleeding for biochemical and histopathological studies, respectively. For biochemical analysis, blood was centrifuged at 4000 rpm at 4° C. for 10 min, serum was separated and Serum Glutamate Pyruvic Transaminase (SGPT), Serum Glutamate Oxaloacetic Transaminase (SGOT), creatinine, and, urea were estimated using a semi-automated Biochemical coralyzer. For histopathological studies, the animals were euthanized and the livers and kidneys were harvested and examined macroscopically. These organs were then preserved in 10% formalin made in PBS for histopathological examinations by standard techniques.
For this, the liver and kidney tissue samples were embedded into wax blocks. The wax blocks were subjected to microtome to generate sections, which were then stained with Hematoxylin and Eosin dyes at a commercial facility. The tissue sections were viewed in a bright field microscope at 40× magnification.

[5] = single oral dose 5 mg/kg, 5 mice initial, 14 days
[6] = single oral dose 5 mg/kg, 5 mice, 14 days
[7] = single oral dose 50 mg/kg, 5 mice initial, 14 days
[8] = single oral dose 50 mg/kg, 5 mice, 14 days
[9] = single oral dose 500 mg/kg, 5 mice initial, 14 days
[10] = single oral dose 500 mg/kg, 5 mice, 14 days
[11] = female, CD-1, mouse, in vivo, po, 2000 mg/kg, 14 days

IGPD (Rv1601), sequence (P9WML9 whole entry, looked up): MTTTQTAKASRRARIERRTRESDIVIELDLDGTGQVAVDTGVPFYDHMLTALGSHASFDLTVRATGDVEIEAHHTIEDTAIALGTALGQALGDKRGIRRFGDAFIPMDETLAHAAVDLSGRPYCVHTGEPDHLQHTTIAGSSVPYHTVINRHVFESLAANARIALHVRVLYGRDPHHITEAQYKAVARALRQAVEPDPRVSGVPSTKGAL

CC(N)c1ncnn1C (centres unmarked) [SF1, 1-(2-methyl-1,2,4-triazol-3-yl)ethanamine]
bacterial burden in lungs vs untreated control (CFU) (Mtb H37Rv [1]; po): no reduction in the bacterial burden
bacterial burden in spleen vs untreated control (CFU) (Mtb H37Rv [1]; po): no reduction in the bacterial burden
bacterial load in Mtb infected macrophages (CFU) [2]: approximately a thousand-fold decline
IC50 (IGPD (Rv1601)): 33.5 µM
MIC99 (Mtb H37Rv [3]): 31.2 µM (≈ 3.94 µg/mL)

NCCSc1ncn[nH]1 [SF3, 2-(1H-1,2,4-triazol-5-ylsulfanyl)ethanamine]
bacterial burden with supplementation of histidine (Mtb H37Rv [1]): restored the bacterial burden to the untreated levels
bacterial burden in lungs vs untreated control (CFU) (Mtb H37Rv [1]; po): significant lowering of the bacterial burden
bacterial burden in spleen vs untreated control (CFU) (Mtb H37Rv [1]; po): significant lowering of the bacterial burden
bacterial load in Mtb infected macrophages (CFU) [2]: did not reduce the bacterial load
IC50 (IGPD (Rv1601)): 76.9 µM
serum levels of SGOT, SGPT, creatinine, and urea compared to the untreated group [4]: no significant changes
kidney histology (H&E) ([4]; mouse, in vivo): no pathological changes
liver histology (H&E), FIG. 11 ([4]; mouse, in vivo): no pathological changes
clinical signs in surviving mice ([4]; oral 5, 50, 500 and 2000 mg/kg body weight, 14 days): no clinical signs of adverse effects/toxicity
LD50 [4]: below 5000 mg/kg body weight
clinical signs ([4]; single dose of 5000 mg/kg, after 12-24 h): slowness and weight decline
Mice number final [4, 5]: 5
Total Deaths (D) [4, 6]: 0
Mice number final [4, 7]: 5
Total Deaths (D) [4, 8]: 0
Mice number final [4, 9]: 5
Total Deaths (D) [4, 10]: 0
Mice number final ([4]; single oral dose 2000 mg/kg, 5 mice initial, 14 days): 3
Total Deaths (D) ([4]; single oral dose 2000 mg/kg, 5 mice, 14 days): 2
Mice number final ([4]; single oral dose 5000 mg/kg, 5 mice initial, 14 days): 2
Total Deaths (D) ([4]; single oral dose 5000 mg/kg, 5 mice, 14 days): 3
body weight compared to the untreated group [4]: decreased for 5, 500, and 2000 mg/kg body weight and increased for 5000 mg/kg body weight
MIC99 (Mtb H37Rv [3]): 500 µM (≈ 72.1 µg/mL)

CC(C)C(N)c1ncnn1C (centres unmarked) [SF2, 2-methyl-1-(2-methyl-1,2,4-triazol-3-yl)propan-1-amine]
bacterial burden with supplementation of histidine (Mtb H37Rv [1]): restored the bacterial burden to the untreated levels
bacterial burden in lungs vs untreated control (CFU) (Mtb H37Rv [1]; po): no reduction in the bacterial burden
bacterial burden in spleen vs untreated control (CFU) (Mtb H37Rv [1]; po): no reduction in the bacterial burden
bacterial load in lungs vs untreated control (CFU) (Mtb H37Rv [1]; po, 200 mg/kg): significant decrease in the bacterial load
reduction in the bacterial load in spleen vs untreated control (CFU) (Mtb H37Rv [1]; po, 200 mg/kg): not found to be statistically significant
bacterial load in Mtb infected macrophages (CFU) [2]: hundred-fold decline
IC50 (IGPD (Rv1601)): 44.1 µM
serum levels of SGOT, SGPT, creatinine, and urea compared to the untreated group [4]: no significant changes
Mice number final [4, 11]: 5
Total Deaths (D) [4, 11]: 0
clinical signs in surviving mice ([4]; mouse, in vivo): no clinical signs of adverse effects/toxicity
kidney histology (H&E) ([4]; mouse, in vivo): no pathological changes
liver histology (H&E), FIG. 11 ([4]; mouse, in vivo): no pathological changes
LD50 [4]: greater than 2000 mg/kg body weight
Mice number final [4, 5]: 5
Total Deaths (D) [4, 6]: 0
Mice number final [4, 7]: 5
Total Deaths (D) [4, 8]: 0
Mice number final [4, 9]: 5
Total Deaths (D) [4, 10]: 0
body weight compared to the untreated group [4]: increased for all doses while a slight dip in weight for 5 mg/kg body weight on 7th day was observed
MIC99 (Mtb H37Rv [3]): 125 µM (≈ 19.3 µg/mL)
